# Data published in the NIST ThermoML archive (doi:10.1016/j.jct.2015.09.005).
# ± gives the expanded uncertainty stated by the source.
# Settings: Liquid, Gas chromatography
Compound,vapor or sublimation pressure (298.15 K) [kPa],vapor or sublimation pressure (308.15 K) [kPa],vapor or sublimation pressure (318.15 K) [kPa],vapor or sublimation pressure (328.15 K) [kPa],vapor or sublimation pressure (338.15 K) [kPa],vapor or sublimation pressure (348.15 K) [kPa],vapor or sublimation pressure (350 K) [kPa]
CC1=COC(=O)[C@H]2[C@@H]1CC[C@@H]2C,0.00092 ± 9e-05,0.0022 ± 0.0002,0.005 ± 0.0005,0.011 ± 0.001,0.022 ± 0.002,0.045 ± 0.005,0.05 ± 0.005
CC1=COC(=O)[C@@H]2[C@@H]1CC[C@@H]2C,0.0012 ± 0.0001,0.0029 ± 0.0003,0.0066 ± 0.0007,0.014 ± 0.002,0.029 ± 0.003,0.056 ± 0.006,0.064 ± 0.006
